According to paper PMC10301922, “Anti-Oxidant, Anti-Mutagenic Activity and Safety Evaluation of Antrocin” (Toxics, 2023):

Key:
ICR male mice = assay: In vivo mammalian erythrocyte micronucleus test
Sprague Dawley rats = assay: 28-day oral toxicity test: histopathological examination; settings: for Bone, femur: Hypertrophy, epiphysis; Score value: grades 1-5
[1] = female rats, 7.5 mg/kg oral 28 d
[2] = female rats, 37.5 mg/kg oral 28 d

**Q.** What does the source list for `C=C1CC[C@H]2C(C)(C)CCC[C@@]23C(=O)OC[C@@H]13` [Antrocin, (-)-Antrocin]?
**A.** Mn-RETs/1000RETs (‰) (ICR male mice; 48 h, 100 mg/kg oral gavage): 2.2 ± 0.9 ‰; RETs/1000RBCs (‰) (ICR male mice; 48 h, 100 mg/kg oral gavage): 20.4 ± 2.4 ‰; frequencies of micronuclei (ICR male mice; 48 h, 250 mg/kg): 18.8 ± 1.9 ‰; Mn-RETs/1000RETs (‰) (ICR male mice; 48 h, 250 mg/kg oral gavage): 1.5 ± 0.2 ‰; RETs/1000RBCs (‰) (ICR male mice; 48 h, 250 mg/kg oral gavage): 18.8 ± 1.9 ‰; frequencies of micronuclei (ICR male mice; 48 h, […]): 20.8 ± 2.5 ‰; frequencies of micronuclei (ICR male mice; 72 h, 100 mg/kg): 31.0 ± 6.1 ‰; Mn-RETs/1000RETs (‰) (ICR male mice; 72 h, 100 mg/kg oral gavage): 3.0 ± 1.0 ‰; RETs/1000RBCs (‰) (ICR male mice; 72 h, 100 mg/kg oral gavage): 31.0 ± 6.1 ‰; frequencies of micronuclei (ICR male mice; 72 h, 250 mg/kg): 26.5 ± 4.6 ‰; Mn-RETs/1000RETs (‰) (ICR male mice; 72 h, 250 mg/kg oral gavage): 2.2 ± 0.5 ‰; RETs/1000RBCs (‰) (ICR male mice; 72 h, 250 mg/kg oral gavage): 26.5 ± 4.6 ‰; frequencies of micronuclei (ICR male mice; 72 h, […]): 28.9 ± 5.0 ‰; frequency of micronuclei versus control (ICR male mice; antrocin-treated groups after 48 or 72 h): no significant changes; Adrenal gland: Congestion, cortex, focal, slight; incidence (Sprague Dawley rats; [1]): -; Aorta: histopathological lesions (Sprague Dawley rats; [1]): -; Bone, femur: Hypertrophy, epiphysis, diffuse, slight to moderate/severe; incidence (Sprague Dawley rats; [1]): 0/5; Cervix: histopathological lesions (Sprague Dawley rats; [1]): -; Esophagus: histopathological lesions (Sprague Dawley rats; [1]): -; Eyes: histopathological lesions (Sprague Dawley rats; [1]): -; Heart: histopathological lesions (Sprague Dawley rats; [1]): -; Kidney: Cast, tubule, focal, slight; incidence (Sprague Dawley rats; [1]): -; Liver: Fatty change, multifocal, slight; incidence (Sprague Dawley rats; [1]): 1/5; Lung: histopathological lesions (Sprague Dawley rats; [1]): -; Optic nerve: histopathological lesions (Sprague Dawley rats; [1]): -; Ovary: Increase, follicle, multifocal, moderate to moderate/severe; incidence (Sprague Dawley rats; [1]): 0/5; Oviduct: histopathological lesions (Sprague Dawley rats; [1]): -; Pancreas: histopathological lesions (Sprague Dawley rats; [1]): -; Parathyroid gland: histopathological lesions (Sprague Dawley rats; [1]): -; Pituitary: histopathological lesions (Sprague Dawley rats; [1]): -; Salivary gland: histopathological lesions (Sprague Dawley rats; [1]): -; Sciatic nerve: histopathological lesions (Sprague Dawley rats; [1]): -; Skeletal muscle: histopathological lesions (Sprague Dawley rats; [1]): -; Skin: histopathological lesions (Sprague Dawley rats; [1]): -; Spinal cord: histopathological lesions (Sprague Dawley rats; [1]): -; Spleen: histopathological lesions (Sprague Dawley rats; [1]): -; Stomach: histopathological lesions (Sprague Dawley rats; [1]): -; Thymus: histopathological lesions (Sprague Dawley rats; [1]): -; Thyroid gland: histopathological lesions (Sprague Dawley rats; [1]): -; Tongue: histopathological lesions (Sprague Dawley rats; [1]): -; Trachea: histopathological lesions (Sprague Dawley rats; [1]): -; Urinary bladder: histopathological lesions (Sprague Dawley rats; [1]): -; Uterus: histopathological lesions (Sprague Dawley rats; [1]): -; Vagina: histopathological lesions (Sprague Dawley rats; [1]): -; Bone, femur: Hypertrophy, epiphysis; Score value (Sprague Dawley rats; [1]): 0; Adrenal gland: Congestion, cortex, focal, slight; incidence (Sprague Dawley rats; [2]): -; Aorta: histopathological lesions (Sprague Dawley rats; [2]): -; Bone, femur: Hypertrophy, epiphysis, diffuse, slight to moderate/severe; incidence (Sprague Dawley rats; [2]): 0/5; Cervix: histopathological lesions (Sprague Dawley rats; [2]): -; Esophagus: histopathological lesions (Sprague Dawley rats; [2]): -; Eyes: histopathological lesions (Sprague Dawley rats; [2]): -; Harderian gland: Infiltration, mononuclear cell, focal, minimal; incidence (Sprague Dawley rats; [2]): 1/5; Heart: histopathological lesions (Sprague Dawley rats; [2]): -; Kidney: Cast, tubule, focal, slight; incidence (Sprague Dawley rats; [2]): -; Lung: histopathological lesions (Sprague Dawley rats; [2]): -; Optic nerve: histopathological lesions (Sprague Dawley rats; [2]): -; Ovary: Increase, follicle, multifocal, moderate to moderate/severe; incidence (Sprague Dawley rats; [2]): 0/5; Oviduct: histopathological lesions (Sprague Dawley rats; [2]): -; Pancreas: histopathological lesions (Sprague Dawley rats; [2]): -; Parathyroid gland: histopathological lesions (Sprague Dawley rats; [2]): -; Pituitary: histopathological lesions (Sprague Dawley rats; [2]): -; Salivary gland: histopathological lesions (Sprague Dawley rats; [2]): -; Sciatic nerve: histopathological lesions (Sprague Dawley rats; [2]): -; Skeletal muscle: histopathological lesions (Sprague Dawley rats; [2]): -; Skin: histopathological lesions (Sprague Dawley rats; [2]): -; Spinal cord: histopathological lesions (Sprague Dawley rats; [2]): -; Spleen: histopathological lesions (Sprague Dawley rats; [2]): -; Stomach: histopathological lesions (Sprague Dawley rats; [2]): -; Thymus: histopathological lesions (Sprague Dawley rats; [2]): -; Thyroid gland: histopathological lesions (Sprague Dawley rats; [2]): -; Tongue: histopathological lesions (Sprague Dawley rats; [2]): -; Trachea: histopathological lesions (Sprague Dawley rats; [2]): -; Urinary bladder: histopathological lesions (Sprague Dawley rats; [2]): -; Uterus: histopathological lesions (Sprague Dawley rats; [2]): -; Vagina: histopathological lesions (Sprague Dawley rats; [2]): -; Bone, femur: Hypertrophy, epiphysis; Score value (Sprague Dawley rats; [2]): 0; treatment-related lesions in the histopathological examination (Sprague Dawley rats; high dose (37.5 mg/kg) oral 28 d): no significant treatment-related lesions; Adrenal gland: Congestion, cortex, multifocal, slight; incidence (Sprague Dawley rats; male rats, 7.5 mg/kg oral 28 d): -; Aorta: histopathological lesions (Sprague Dawley rats; male rats, 7.5 mg/kg oral 28 d): -; Bone marrow, femur: Hypocellularity, diffuse, slight to moderate/severe; incidence (Sprague Dawley rats; male rats, 7.5 mg/kg oral 28 d): 0/5; Bone marrow, sternum: Hypocellularity, diffuse, moderate; incidence (Sprague Dawley rats; male rats, 7.5 mg/kg oral 28 d): 0/5; Bone, femur: Hypertrophy, epiphysis, diffuse, slight to moderate/severe; incidence (Sprague Dawley rats; male rats, 7.5 mg/kg oral 28 d): 0/5; Coagulative gland: histopathological lesions (Sprague Dawley rats; male rats, 7.5 mg/kg oral 28 d): -; Epididymis: Granuloma, spermatic, focal, moderate; incidence (Sprague Dawley rats; male rats, 7.5 mg/kg oral 28 d): -; Esophagus: histopathological lesions (Sprague Dawley rats; male rats, 7.5 mg/kg oral 28 d): -; Eyes: histopathological lesions (Sprague Dawley rats; male rats, 7.5 mg/kg oral 28 d): -
